Tests used:
[1] = test system: Huh7 tumors; experiment: Huh7 tumors in NU/J mice; type: in vivo, mouse
Method: FIGS. 26A-26H: Raldh1-INH suppresses HCC growth by altering macrophage functions. FIG. 26A: Huh7 tumor-bearing NU/J mice were treated with C86 (i.p, 10 mg/kg) every day starting when tumor size was approximately 50 mm^3. Tumor volume was measured every 2 days. […] Three or more independent experiments were performed with at least three replicates per experimental group. Unpaired t test, two-tailed. FIG. 26B: AldeRed assay at endpoint on Huh7 tumor treated as described in FIG. 26A. […] Three or more independent experiments were performed with at least three replicates per experimental group. Unpaired t test, two-tailed. FIG. 26C: Huh7 tumor-bearing nude mice were treated with different dose of C86 every day. Tumor volume was measured every 2-3 days. […] Two independent experiments were performed with at least three replicates per experimental group. Unpaired t test, two-tailed. FIG. 26D: Body weight measured every 3-5 days for the experiment outlined in FIG. 26C. FIG. 26E: Parental Huh7 or RALDH1-KO Huh7 cells were implanted subcutaneously into NU/J mice and treated with C86 (i.p, 10 mg/kg) or vehicle (control) every day. […] Three or more independent experiments were performed with at least three replicates per experimental group. Unpaired t test, two-tailed. FIG. 26F: Huh7 tumor-bearing NU/J mice were treated with clodronate liposomes (CloLipo) and/or C86. […] Two independent experiments were performed with at least three replicates per experimental group. Unpaired t test, two-tailed. FIG. 26G: Murine Hepa 1-6 tumors were implanted subcutaneously into C57BL6/J WT mice or LyMCre:RosadnRAR mice. Expression of the dominant negative RAR in myeloid cells slows tumor growth. Two independent experiments were performed with at least three replicates per experimental group. Unpaired t test, two-tailed. FIG. 26H: Huh7 cells were implanted subcutaneously into NU/J mice. When tumor size reached about 50 mm^3, mice were intraperitoneally injected vehicle (control) or C86 daily with or without BMS493 treatment intratumorally every 3 days. BMS493 and C86 suppress tumor growth with the combination showing higher suppression than monotherapy. *, P<0.05; **, P<0.01; ***, P<0.001; n.s., not significant.
Cultured Huh7, Huh1, Hepa 1-6, Hep55, and FS (as indicated in figure legends) tumor cells were detached using 0.25% trypsin (Gibco, catalog #25200056), washed once with 1×PBS, and counted before implantation. 3~6×10^6 tumor cells were implanted subcutaneously (s.c.) into shaved flanks of recipient mice. Tumor dimensions were measured using a caliper starting at the day indicated in the accompanying figure legend and every two to three days thereafter; volume was calculated by using formula Length*Width^2/2. Tumor volumes of 2,000 mm^3, tumor length of 2 cm or tumor ulceration were used as endpoints for survival analyses.
Compound-86, 97 and 99 powder was dissolved in 20% HPβCD saline (2-Hydroxypropyl)-[…]). Drug was administered i.p. or p.o. starting when tumor volume reached 50-150 mm^3 and repeated every day.

[2] = target: T1, Protein Tyrosine Kinase, Insulin Receptor (Homo sapiens, UniProt P06213); experiment: Safetyscreen: Insulin Receptor kinase; type: biochemical; details: read-out: % Inh. Protein Tyrosine Kinase, Insulin Receptor
T1 construct: Eurofins Cerep Panlabs (contract panel)

[3] = target: T2, Angiotensin AT1 (Homo sapiens, UniProt P30556); experiment: Safetyscreen: Angiotensin AT1; type: binding; details: read-out: % Inh. Angiotensin AT1
T2 construct: purchased Eurofins Cereps Panlabs

[4] = test system: Calcium Channel L-Type, Dihydropyridine; experiment: Safetyscreen: Ca channel L-type, dihydropyridine; type: binding, rat; details: 10 μM
[5] = target: T3, Opiate δ1 (OP1, DOP) (Homo sapiens, UniProt P41143); experiment: Safetyscreen: Opiate δ1; type: binding; details: read-out: % Inh. Opiate δ1 (OP1, DOP)
T3 construct: Eurofins Cereps Panlabs (contract panel)

[6] = target: T4, Transporter, Dopamine (DAT) (Homo sapiens, UniProt Q01959); experiment: Safetyscreen: DAT; type: binding; details: read-out: % Inh. Transporter, Dopamine (DAT)
T4 construct: purchased Eurofins Cereps Panlabs

[7] = Huh7 tumor-bearing nude mice, once daily dosing

T1 sequence (P06213 28-1382): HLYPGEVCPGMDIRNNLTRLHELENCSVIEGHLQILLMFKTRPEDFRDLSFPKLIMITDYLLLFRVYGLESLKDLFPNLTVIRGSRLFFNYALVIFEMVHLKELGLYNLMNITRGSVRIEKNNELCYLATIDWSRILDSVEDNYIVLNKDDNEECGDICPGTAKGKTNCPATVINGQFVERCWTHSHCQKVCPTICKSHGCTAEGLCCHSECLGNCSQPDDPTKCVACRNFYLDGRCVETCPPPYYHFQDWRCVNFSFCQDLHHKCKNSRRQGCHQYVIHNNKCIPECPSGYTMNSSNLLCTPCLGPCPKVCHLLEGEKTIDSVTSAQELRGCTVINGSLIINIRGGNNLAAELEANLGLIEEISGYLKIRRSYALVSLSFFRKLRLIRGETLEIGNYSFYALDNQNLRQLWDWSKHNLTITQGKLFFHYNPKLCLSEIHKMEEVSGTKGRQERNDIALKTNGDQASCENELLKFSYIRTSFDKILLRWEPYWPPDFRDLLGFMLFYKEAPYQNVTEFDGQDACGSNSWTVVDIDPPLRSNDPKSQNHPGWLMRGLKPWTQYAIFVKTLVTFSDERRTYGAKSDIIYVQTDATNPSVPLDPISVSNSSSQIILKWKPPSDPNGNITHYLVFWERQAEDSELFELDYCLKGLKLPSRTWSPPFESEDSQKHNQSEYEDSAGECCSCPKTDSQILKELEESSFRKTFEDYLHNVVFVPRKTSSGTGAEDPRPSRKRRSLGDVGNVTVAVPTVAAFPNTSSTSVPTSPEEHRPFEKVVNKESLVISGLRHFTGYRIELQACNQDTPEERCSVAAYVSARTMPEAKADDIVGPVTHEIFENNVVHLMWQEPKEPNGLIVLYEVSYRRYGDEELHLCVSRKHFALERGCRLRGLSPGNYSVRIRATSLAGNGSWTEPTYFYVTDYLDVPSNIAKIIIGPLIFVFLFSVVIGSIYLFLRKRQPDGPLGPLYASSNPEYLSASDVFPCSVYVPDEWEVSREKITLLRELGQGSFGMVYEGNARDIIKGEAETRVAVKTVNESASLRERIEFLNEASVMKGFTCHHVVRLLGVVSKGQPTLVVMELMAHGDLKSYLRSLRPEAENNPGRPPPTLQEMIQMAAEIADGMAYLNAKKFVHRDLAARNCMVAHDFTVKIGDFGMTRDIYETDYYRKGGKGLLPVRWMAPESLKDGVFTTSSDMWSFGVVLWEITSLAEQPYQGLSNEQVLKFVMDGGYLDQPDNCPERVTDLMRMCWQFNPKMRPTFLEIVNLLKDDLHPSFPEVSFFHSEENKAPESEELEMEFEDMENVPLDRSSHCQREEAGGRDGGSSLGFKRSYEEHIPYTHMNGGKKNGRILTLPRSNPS
T3 sequence (P41143 whole entry): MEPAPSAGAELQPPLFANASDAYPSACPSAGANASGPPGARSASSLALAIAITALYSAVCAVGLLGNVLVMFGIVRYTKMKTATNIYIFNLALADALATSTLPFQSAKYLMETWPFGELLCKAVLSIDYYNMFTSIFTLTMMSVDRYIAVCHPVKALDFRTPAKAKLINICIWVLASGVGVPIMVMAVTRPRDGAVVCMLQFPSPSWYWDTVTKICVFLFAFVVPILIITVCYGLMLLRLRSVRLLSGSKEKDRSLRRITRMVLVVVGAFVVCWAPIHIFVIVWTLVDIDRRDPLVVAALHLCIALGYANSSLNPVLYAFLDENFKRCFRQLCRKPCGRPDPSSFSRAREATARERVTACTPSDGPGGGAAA
T4 sequence (Q01959 whole entry): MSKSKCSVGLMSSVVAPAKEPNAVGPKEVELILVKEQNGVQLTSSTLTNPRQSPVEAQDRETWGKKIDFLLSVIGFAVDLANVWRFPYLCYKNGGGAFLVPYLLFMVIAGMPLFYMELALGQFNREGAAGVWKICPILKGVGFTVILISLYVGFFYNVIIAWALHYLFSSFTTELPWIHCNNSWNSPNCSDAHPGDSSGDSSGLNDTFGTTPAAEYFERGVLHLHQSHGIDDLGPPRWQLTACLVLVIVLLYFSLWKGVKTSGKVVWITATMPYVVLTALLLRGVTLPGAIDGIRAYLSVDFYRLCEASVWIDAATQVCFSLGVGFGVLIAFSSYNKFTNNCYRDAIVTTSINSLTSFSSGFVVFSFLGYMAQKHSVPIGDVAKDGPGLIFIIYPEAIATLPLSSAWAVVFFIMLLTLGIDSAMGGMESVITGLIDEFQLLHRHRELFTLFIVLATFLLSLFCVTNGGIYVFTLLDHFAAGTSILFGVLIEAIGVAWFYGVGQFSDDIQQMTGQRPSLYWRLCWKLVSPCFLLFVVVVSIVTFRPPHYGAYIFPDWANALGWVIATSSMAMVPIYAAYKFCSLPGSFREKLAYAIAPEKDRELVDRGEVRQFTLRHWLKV
T2 sequence (P30556 whole entry): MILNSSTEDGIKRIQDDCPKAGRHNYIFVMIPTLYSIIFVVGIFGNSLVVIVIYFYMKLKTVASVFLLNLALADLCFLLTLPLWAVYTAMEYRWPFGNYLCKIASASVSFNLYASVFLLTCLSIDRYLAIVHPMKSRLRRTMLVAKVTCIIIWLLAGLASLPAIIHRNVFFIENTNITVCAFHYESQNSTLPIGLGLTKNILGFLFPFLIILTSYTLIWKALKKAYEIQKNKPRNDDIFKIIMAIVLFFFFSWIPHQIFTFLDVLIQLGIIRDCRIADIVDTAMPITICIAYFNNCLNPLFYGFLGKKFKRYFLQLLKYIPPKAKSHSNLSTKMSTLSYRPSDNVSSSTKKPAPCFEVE

CS(=O)(=O)N1CCN(C(=O)c2cnc3ccc(F)cc3c2N2CCC(C#N)(c3ccccc3)CC2)CC1 [Compound C-86, 1-(6-fluoro-3-(4-(methylsulfonyl)piperazine-1-carbonyl)quinolin-4-yl)-4-phenylpiperidine-4-carbonitrile]
tumor mass and volume ([1]; Huh7, C-86 versus C-97 (FIGS. 17A-17B)): significant reduction in tumor mass and volume | dose dependence of effect on tumor volume and tumor mass ([1]; Huh7, FIGS. 13A-13B): dose-dependent effect | tumor suppression in the absence of TAMs ([1]; Huh7, TAM depletion with CloLipo): did not further suppress tumors | tumor mass and volume ([1]; Huh7, intraperitoneal administration, compared to a control (FIGS. 12B-12C)): significant reduction in tumor mass and volume | tumor mass ([1]; Huh7, macrophage depletion study (FIG. 14B)): significant reduction in tumor mass | dose at which weight loss was observed [1, 7]: 40 mg/kg | dose with tumor suppressive effects [1, 7]: > 10 mg/kg | RALDH activity in tumor cells (AldeRed at endpoint) ([1]; Huh7 tumors, CD45− cells): reduced RADLH activity | response of RALDH1-KO HCC tumors to therapy ([1]; RALDH1-KO Huh7, i.p, 10 mg/kg every day): did not respond | tumor inhibition ([1]; huh7 in immunodeficient mice, i.p, 10 mg/kg every day): significant tumor inhibition | inhibition at 10 µM [2]: 0% | inhibition at 10 µM [3]: 19% | % Inh. Calcium Channel L-Type, Dihydropyridine [4]: 23% | inhibition at 10 µM [5]: 2% | inhibition at 10 µM [6]: 8%
